Laboratory results from publication PMC7824769, “Identification of Small Molecules Blocking the Pseudomonas aeruginosa Type III Secretion System Protein PcrV” (Biomolecules, 2021).

Tests used:
[1] = Cell toxicity control: compounds added to uninfected J774 cells; assay type: cell-based; settings: mouse, uninfected J774 macrophage cells; read-out: Eukaryotic cell toxicity (viability compared to DMSO control)
Experimental: (§1) The cell viability assay was performed essentially as described before. J774 cells were seeded in 96-well micro-titer plates (Nunc), 100 µL/well, to a final number of 50,000 cells/well in Dulbecco’s modified Eagle’s medium (DMEM) with glutamax (Merck) supplemented with 10% fetal calf serum (FCS) and 3 µg/mL gentamicin and incubated for 16-18 h. Overnight cultures of the P. aeruginosa strains PAK and PAKpcrV [10] were grown in Luria Broth (LB) on a rotary shaker at 220 rpm at 37 °C. Prior to infection, the bacteria were diluted 1:10 in DMEM + glutamax and incubated for 1 h at 37 °C (shaking). The J774 cells were washed once with PBS, then 30 µL of DMEM with glutamax and 10% FCS supplemented with the potential binders at concentrations of 50, 100, 200, and 400 µM were added to the wells in triplicates. The infection was initiated by adding 30 µL of the diluted bacterial solutions (where the OD600 had been diluted to 0.0008) to each well to initiate infection. This infection results in a final bacterial concentration of OD600 = 0.0004 and a multiplicities of infection (MOI) of approximately 8, with final concentrations of the compounds at 25, 50, 100, and 200 µM in 60 µL of DMEM + glutamax and 5% FCS. In the primary screening, the compounds were run at one concentration (100 µM) in duplicates. As an infection control, the wild-type strain PAK with 1% DMSO was added, and as a positive control, PAKpcrV with 1% DMSO was added into four wells each. After 3 h and 30 min, 10 µL of UptiBlue Viable Cell Counting Kit (Interchime, France) was added to all wells. The infection was followed under the light microscope and the fluorescence (excitation 535 nm and emission 595 nm) was measured at 4, 5, and 6 h in a microplate reader (Synergy™ H4, Biotek). The results were calculated as percentage of living cells compared to uninfected control, where the uninfected control was set to 100% living cells and the infected control was set to 0% living cells. As a control, compounds were added to uninfected cells in a parallel experiment and viability was calculated as above to screen for cell toxicity. A compound was considered toxic if the viability was <80% of the uninfected control after 6 h of incubation and if a visual change of cell morphology was observed by microscopy. Z’ was calculated for each plate to ensure good quality throughout the screening. Only results from plates with a Z’ > 0.4 were counted. Standard deviation was calculated with Gaussian approximation when appropriate and shown as error bars in Figure 3C and Figure 4A.

uninfected J774 cells = assay: as above; assay type: cell-based; settings: 6 h incubation; for Toxicity towards eukaryotic cells, 25 µM: compound 25 µM; for Toxicity towards eukaryotic cells, 50 µM: compound 50 µM; for Toxicity towards eukaryotic cells, 100 µM: compound 100 µM; for Toxicity towards eukaryotic cells, 200 µM: compound 200 µM
Experimental: as §1

PcrV = PcrV (Pseudomonas aeruginosa, UniProt G3XD49); assay: SPR dose-response binding to immobilized PcrV (equilibrium analysis); settings: for Binding to PcrV in SPR (in words): dose-response SPR
Chain of PcrV (G3XD49 entry or part of it): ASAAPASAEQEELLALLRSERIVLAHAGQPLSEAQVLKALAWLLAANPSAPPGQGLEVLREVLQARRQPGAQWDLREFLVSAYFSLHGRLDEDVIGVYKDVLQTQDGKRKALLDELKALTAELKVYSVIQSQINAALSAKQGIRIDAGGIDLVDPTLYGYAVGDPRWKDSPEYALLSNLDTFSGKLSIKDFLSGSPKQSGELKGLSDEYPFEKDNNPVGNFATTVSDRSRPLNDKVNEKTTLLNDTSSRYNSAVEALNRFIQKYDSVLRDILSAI
Experimental: The SPR screening was performed using the ProteOn^TM XPR36 Protein Interaction Array System (Bio-Rad Laboratories Inc., Hercules, CA, USA) with ProteOn GLH sensor chip (Bio-Rad Laboratories Inc., Hercules, CA, USA), and the results were analyzed with the ProteOn Manager software^TM (Bio-Rad Laboratories Inc., Hercules, CA, USA), Excel 2016 (Microsoft Office), and GraphPad Prism 7.04. All SPR experiments were performed at 25 °C. The multichannel module of the ProteOn system was in the vertical position during protein immobilization. The proteins were attached to the surface of a GLH sensor chip via amine coupling chemistry. A buffer scouting was performed to elucidate the optimal binding conditions of PcrV to the GLH sensor chip. First, channels 1–4 on the chip surface were activated using a 1:1 mixture of 40 mM 1-ethyl-3-(3-dimethylaminopropyl)carbodiimide hydrochloride (EDAC) (Bio-Rad Laboratories Inc., Hercules, CA, USA) and 10 mM N-hydroxysulfosuccinimide (sulfo-NHS, Bio-Rad Laboratories Inc., Hercules, CA, USA) for 300 s at 30 µL/min. Next, the proteins PcrV (33,398.6 Da, 6.37 mg/mL) was diluted in 10 mM NaOAc (pH 4, 4.5, and 5) to 0.05 mg/mL. PcrV was immobilized in channel 1–3 for 540 s at 30 µL/min. Channel 4 was flushed with 10 mM NaOAc (pH 5) for 540 s at 30 µL/min. As deactivating agent, a 1:1 mixture of 1 M ethanolamine and milli-Q filtered water was used. The deactivating solution was injected over all four channels for 300 s at 30 µL/min. Phosphate buffered saline with Tween (PBST; 10 mM phosphate buffer pH 7.4, 140 mM NaCl, 2.7 mM KCl, and 0.05% Tween 20) was used as the running buffer. The final amount of immobilized protein was measured in resonance units (RU) relative to the signal of the baseline prior activation. […] Immobilization of PcrV diluted in sodium acetate of pH 4.5 in one channel and of pH 5 in one channel were used in the beginning of the screening procedure (for plate 1–26). Since no difference was found between the two pH values, the PcrV protein was diluted in sodium acetate at pH 5 only (in two channels) from plate 27 and the rest of the screen. The immobilization procedure for the screening was performed as described above with the addition that the control protein carbonic anhydrase isoenzyme II from bovine erythrocytes (CAII, Sigma-Aldrich, article number 2522) was immobilized in one channel that was activated and deactivated as described above. CAII (1 mg/mL in PBS) was deactivated when diluted in 10 mM sodium acetate (pH 4) to 0.05 mg/mL. Immobilization level of the deactivated CAII was 18,000 RU. Deactivated CAII was used as a control protein according to the recommendations by the ProteOn manufacturer (Bio-Rad Laboratories Inc., Hercules, CA, USA). As running buffer, we employed PBS (pH 7.4, 0.05% Tween 20).
First, the PcrV protein was immobilized in two channels as described above while keeping a blank channel which was activated and deactivated as described above. The multichannel module of the ProteOn system was in horizontal position during the small molecule interaction studies. They were serially diluted to (400,) 200, 100, 50, 25, 12.5, 6.25, and (3.125); or 100, 50, 25, and 12.5 µM; or 100, 66.7, 44.4, 29.6, 19.7, and 13.2 µM in PBST (0.05% Tween 20) with a total concentration of 5% DMSO in 96-well plates. The running buffer was PBST (0.05% Tween 20) containing 5% DMSO. The analytes were injected at a flowrate of 100 µL/min, contact time was 60 s, and dissociation time was 60–120 s. Solvent correction was performed continuously during the experiments to account for bulk response of DMSO. The data was then baseline-aligned, processed by channel referencing with the blank channel, and solvent-corrected. The equilibrium dissociation constant (KD) values were determined from equilibrium analysis in the ProteOn Manager software^TM. Solubility problems frequently hampered KD determination since the small molecules could not always be dissolved in concentrations high enough to reach a plateau. […]

[2] = KD ± standard error of KD (Table S1), single experiment, standard error from ProteOn Manager software
[3] = SPR KD, equilibrium analysis, mean ± SD of three or more independent experiments, individual values where n < 3, 25 °C, PBST 5% DMSO

Row | Compound | viability at 6 h [1] | Toxicity towards eukaryotic cells, 25 µM (uninfected J774 cells) | Toxicity towards eukaryotic cells, 50 µM (uninfected J774 cells) | Toxicity towards eukaryotic cells, 100 µM (uninfected J774 cells) | Toxicity towards eukaryotic cells, 200 µM (uninfected J774 cells) | Kd (PcrV; [2]) | Kd (PcrV; [3]) | Binding to PcrV in SPR (in words) (PcrV)
1 | Cc1c(Br)ccc(OCCCC(N)=O)c1C [Compound 18] | < 80% | Toxic ^e (<80% viability compared to the DMSO control) | Toxic ^e (<80% viability compared to the DMSO control) | Toxic ^e (<80% viability compared to the DMSO control) | Toxic ^e (<80% viability compared to the DMSO control) | 32.9 ± 5 µM | 42 ± 12 µM | improved or similar binding affinity
2 | CNC(=O)CCCOc1ccc(Br)c(C)c1C [Compound 19] | < 80% | Toxic ^e (<80% viability compared to the DMSO control) | Toxic ^e (<80% viability compared to the DMSO control) | Toxic ^e (<80% viability compared to the DMSO control) | Toxic ^e (<80% viability compared to the DMSO control) | 177 ± 31.6 µM | 121 ± 45 µM | improved or similar binding affinity
